{"source": "paper PMC11295857", "about": "(Malaria Journal, 2024)", "tested_on": "P. falciparum Dd2 strain", "assay_type": "cell-based, Plasmodium falciparum", "conditions": "single dose, 72 h in vitro treatment; Fig. 1B; normalized to non-treated cultures", "data": [{"substance": "poly-L-glutamate", "values": [{"measurement": "parasite growth inhibition (in words)", "value": "parasite growth inhibition was not observed"}]}]}
